From patent publication US12336981B2, “Compounds and compositions for the inhibition of NAMPT” (Valo Health, Inc., priority 2010, dated 2025)
Read-outs that look alike come from different tables or passages of the source.

Legend:
NAMPT = target: T1, NAMPT (Homo sapiens, UniProt P43490); assay: Biochemical inhibition assay: NAMPT enzymatic reaction, NMN quantified by mass spectrometry; settings: read-out: Biochem IC50
T1 construct: His tag; host or cells: E. coli
Method in brief: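 Inhibition of E. coli-expressed His-tagged human NAMPT, measured as NMN formation by mass spectrometry after a 30 min room-temperature reaction containing 1 μM NAM, 100 μM PRPP and 2.5 mM ATP.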

A2780 cells = assay: In-vitro cell proliferation assay (SRB), A2780 cells; type: cell-based; settings: Homo sapiens, A2780, 72 h, A2780 cells, 72 hours, read-out: A2780 IC50
Method in brief: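 Read-out is SRB absorbance at 570 nm on TCA-fixed cells after 72 hours of compound treatment at 37° C. in 5% CO2. Background from a media-only plate is subtracted, and % inhibition is interpolated between two tested concentrations.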

T1 sequence (P43490 whole entry): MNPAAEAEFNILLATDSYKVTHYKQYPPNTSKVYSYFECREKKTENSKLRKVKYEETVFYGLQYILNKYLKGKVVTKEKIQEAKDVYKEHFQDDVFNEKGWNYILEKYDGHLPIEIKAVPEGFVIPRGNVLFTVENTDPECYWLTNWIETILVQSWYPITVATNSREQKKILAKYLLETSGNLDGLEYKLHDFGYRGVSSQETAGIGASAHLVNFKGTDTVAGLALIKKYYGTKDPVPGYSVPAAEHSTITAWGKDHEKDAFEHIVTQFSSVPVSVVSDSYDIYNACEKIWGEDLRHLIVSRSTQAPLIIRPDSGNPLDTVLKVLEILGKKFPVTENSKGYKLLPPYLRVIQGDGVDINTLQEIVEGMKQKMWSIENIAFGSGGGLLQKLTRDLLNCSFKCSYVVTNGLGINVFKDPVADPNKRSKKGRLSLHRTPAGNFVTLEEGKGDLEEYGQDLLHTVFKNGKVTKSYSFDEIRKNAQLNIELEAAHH

Row | SMILES | IC50 (NAMPT; NAMPT enzymatic assay) [nM] | IC50 (A2780 cells; SRB) [nM] | IC50 (NAMPT; NAMPT enzymatic reaction) [nM] | IC50 (A2780 cells; SRB assay) [nM]
1 | CCS(=O)(=O)c1cccc(S(=O)(=O)c2ccc(CNC(=O)c3cnc4nccn4c3)cc2)c1 | 2.7 | 64.5 |  | 
2 | COc1cccc(S(=O)(=O)c2ccc(CNC(=O)c3cc4cnccc4[nH]3)cc2)c1OC |  | 4.9 | 11.7 | 
3 | O=C(NCc1ccc(S(=O)(=O)c2cc(Cl)cc(Cl)c2)cc1)c1cc2ccncc2s1 [N-({4-[(3,5-dichlorobenzene)sulfonyl]phenyl}methyl)thieno[2,3-c]pyridine-2-carboxamide] |  |  | 6 | 0.7
4 | CCc1ccccc1S(=O)(=O)c1ccc(CNC(=O)c2cc3ccncc3s2)cc1 [N-({4-[(2-ethylbenzene)sulfonyl]phenyl}methyl)thieno[2,3-c]pyridine-2-carboxamide] |  |  | 5 | 2.9
5 | CS(=O)(=O)c1ccccc1S(=O)(=O)c1ccc(CNC(=O)c2cnc3[nH]ncc3c2)cc1 |  | 100 to 1000 | 202 | 
6 | Cn1ncc2c(S(=O)(=O)c3ccc(CNC(=O)c4cnc5[nH]ncc5c4)cc3)cccc21 [N-{[4-(1-methyl-1H-indazole-4-sulfonyl)phenyl]methyl}-1H-pyrazolo[3,4-b]pyridine-5-carboxamide] | 20.3 | 6.4 |  | 
7 | COc1ccc(C(C)=O)cc1S(=O)(=O)c1ccc(CNC(=O)c2cnc3nccn3c2)cc1 |  | 54.8 | 17.2 | 
8 | O=C(NCc1ccc(S(=O)(=O)c2cccc(N3CCOCC3)c2)cc1)c1cnc2[nH]ncc2c1 | 16.7 | 13 |  | 
9 | CC(C)Oc1cccc(S(=O)(=O)c2ccc(CNC(=O)c3cnc4nccn4c3)cc2)c1F [N-[(4-{[2-fluoro-3-(propan-2-yloxy)benzene]sulfonyl}phenyl)methyl]imidazo[1,2-a]pyrimidine-6-carboxamide] | 1.8 | 7 |  | 
10 | O=C(NCc1ccc(S(=O)(=O)c2ccc(N3CCOCC3)nc2)cc1)c1cnc2nccn2c1 [N-({4-[6-(morpholin-4-yl)pyridine-3-sulfonyl]phenyl}methyl)imidazo[1,2-a]pyrimidine-6-carboxamide] | 1.1 | 3.3 |  | 
11 | CC(C)COc1cccc(S(=O)(=O)c2ccc(CNC(=O)c3cc4ccncc4o3)cc2)c1 | 14.8 | 67.7 |  | 
12 | O=C(NCc1ccc(S(=O)(=O)c2cc(F)cc(OCC(F)(F)F)c2)cc1)c1cc2ccncc2s1 [N-[(4-{[3-fluoro-5-(2,2,2-trifluoroethoxy)benzene]sulfonyl}phenyl)methyl]thieno[2,3-c]pyridine-2-carboxamide] | 2.9 | 3.5 |  | 
13 | O=C(NCc1ccc(S(=O)(=O)c2ccccc2)cc1)c1ccc2nncn2c1 [N-{[4-(benzenesulfonyl)phenyl]methyl}-[1,2,4]triazolo[4,3-a]pyridine-6-carboxamide] |  |  | 301 | > 10000
14 | CCCOc1ccc(S(=O)(=O)c2ccc(CNC(=O)c3cnc4[nH]ncc4c3)cc2)cc1F [N-({4-[(3-fluoro-4-propoxybenzene)sulfonyl]phenyl}methyl)-1H-pyrazolo[3,4-b]pyridine-5-carboxamide] |  | 6.5 | 11.6 | 
15 | CCCCOc1ccc(S(=O)(=O)c2ccc(CNC(=O)c3cnc4[nH]ncc4c3)cc2)cc1 [N-({4-[(4-butoxybenzene)sulfonyl]phenyl}methyl)-1H-pyrazolo[3,4-b]pyridine-5-carboxamide] |  | 22.5 | 27.5 | 
16 | Cc1ncccc1S(=O)(=O)c1ccc(CNC(=O)c2cc3ccncc3s2)cc1 [N-{[4-(2-methylpyridine-3-sulfonyl)phenyl]methyl}thieno[2,3-c]pyridine-2-carboxamide] | 15.4 | 11.9 |  | 
17 | O=C(NCc1ccc(S(=O)(=O)c2c(Cl)cccc2Cl)cc1)c1cnc2[nH]ncc2c1 |  | 1000 to 10000 | 180 | 
18 | Cc1ccc(S(=O)(=O)c2ccc(CNC(=O)c3cc4ccncc4s3)cc2)c(Cl)c1 |  | 1.6 | 24.9 | 
19 | COc1cc(Cl)ccc1S(=O)(=O)c1ccc(CNC(=O)c2cnc3nccn3c2)cc1 |  | 24.7 | 3.3 | 
20 | COc1ccc(S(=O)(=O)c2ccc(CNC(=O)c3cc4ccncc4o3)cc2)cc1 [N-({4-[(4-methoxybenzene)sulfonyl]phenyl}methyl)furo[2,3-c]pyridine-2-carboxamide] |  | 6 | 5.5 | 
21 | Cc1cc(C)c(S(=O)(=O)c2ccc(CNC(=O)c3cnc4[nH]ncc4c3)cc2)cc1C [N-({4-[(2,4,5-trimethylbenzene)sulfonyl]phenyl}methyl)-1H-pyrazolo[3,4-b]pyridine-5-carboxamide] |  | 19.3 | 31.3 | 
22 | O=C(NCc1ccc(S(=O)(=O)c2ccc(Cl)c(F)c2)cc1)c1cnc2nccn2c1 |  | 8.9 | 1.9 | 
23 | O=C(NCc1ccc(S(=O)(=O)c2cccc(N3CCOCC3)c2)cc1)c1ccc2ncsc2c1 [N-[(4-{[3-(morpholin-4-yl)benzene]sulfonyl}phenyl)methyl]-1,3-benzothiazole-6-carboxamide] | 40.1 | 1000 to 10000 |  | 
24 | O=C(NCc1ccc(S(=O)(=O)c2ccc(C(F)(F)F)cc2C(F)(F)F)cc1)c1cc2cnccc2[nH]1 | 40.1 | 14 |  | 

Row | SMILES | IC50 (NAMPT; NAMPT enzymatic assay) [nM] | IC50 (A2780 cells; SRB) [nM] | IC50 (NAMPT; NAMPT enzymatic reaction) [nM] | IC50 (A2780 cells; SRB assay) [nM]
25 | Cc1ncccc1S(=O)(=O)c1ccc(CNC(=O)c2cnc3[nH]ncc3c2)cc1 [N-{[4-(2-methylpyridine-3-sulfonyl)phenyl]methyl}-1H-pyrazolo[3,4-b]pyridine-5-carboxamide] | 105 | 136 |  | 
26 | Cc1ccc(S(=O)(=O)c2ccc(CNC(=O)c3cnc4nccn4c3)cc2)cc1Cl |  | 1.2 | 1.8 | 
27 | Cc1cc(-n2cccn2)ccc1S(=O)(=O)c1ccc(CNC(=O)c2ccc3nccn3c2)cc1 [N-[(4-{[2-methyl-4-(1H-pyrazol-1-yl)benzene]sulfonyl}phenyl)methyl]imidazo[1,2-a]pyridine-6-carboxamide] | 7.99 | 3.6 |  | 
28 | Cc1nc(C)c(S(=O)(=O)c2ccc(CNC(=O)c3cc4ccncc4o3)cc2)s1 [N-{[4-(dimethyl-1,3-thiazole-5-sulfonyl)phenyl]methyl}furo[2,3-c]pyridine-2-carboxamide] | 8.3 | 10.3 |  | 
29 | COc1ccc(C)cc1S(=O)(=O)c1ccc(CNC(=O)c2ccc3nccn3c2)cc1 [N-({4-[(2-methoxy-5-methylbenzene)sulfonyl]phenyl}methyl)imidazo[1,2-a]pyridine-6-carboxamide] |  | 11.7 | 43.1 | 
30 | Cn1cc2ccc(S(=O)(=O)c3ccc(CNC(=O)c4cc5ccncc5s4)cc3)cc2n1 [N-{[4-(2-methyl-2H-indazole-6-sulfonyl)phenyl]methyl}thieno[2,3-c]pyridine-2-carboxamide] | 1.4 | 1.5 |  | 
31 | COc1cc(OC)cc(S(=O)(=O)c2ccc(CNC(=O)c3cc4ccncc4s3)cc2)c1 |  | 0.9 | 1.3 | 
32 | CCCCOc1ccc(S(=O)(=O)c2ccc(CNC(=O)c3cc4ccncc4s3)cc2)cc1 |  | 10.3 | 3.6 | 
33 | O=C(NCc1ccc(S(=O)(=O)c2ccccc2)cc1)c1cnc2[nH]ncc2c1 [N-{[4-(benzenesulfonyl)phenyl]methyl}-1H-pyrazolo[3,4-b]pyridine-5-carboxamide] |  |  | 70 | 51
34 | CCCCOc1cc(F)ccc1S(=O)(=O)c1ccc(CNC(=O)c2cnc3[nH]ncc3c2)cc1 [N-({4-[(2-butoxy-4-fluorobenzene)sulfonyl]phenyl}methyl)-1H-pyrazolo[3,4-b]pyridine-5-carboxamide] |  | 100 to 1000 | 176 | 
35 | O=C(NCc1ccc(S(=O)(=O)c2c(F)cccc2Cl)cc1)c1cc2cnccc2[nH]1 |  | 37.1 | 114 | 
36 | COc1ccc(F)c(S(=O)(=O)c2ccc(CNC(=O)c3cc4cnccc4[nH]3)cc2)c1 |  | 14.4 | 77.8 | 
37 | Cc1c(F)cccc1S(=O)(=O)c1ccc(CNC(=O)c2cc3ccncc3o2)cc1 |  | 30.7 | 13.2 | 
38 | Cc1cc(F)cc(S(=O)(=O)c2ccc(CNC(=O)c3cc4cnccc4[nH]3)cc2)c1 |  | 1.8 | 8.3 | 
39 | O=C(NCc1ccc(S(=O)(=O)c2ccccc2Oc2ccccc2)cc1)c1cc2ccncc2o1 |  | 1000 to 10000 | 20.4 | 
40 | Cc1ccc(Cl)c(S(=O)(=O)c2ccc(CNC(=O)c3cc4ccncc4o3)cc2)c1 |  | 14.9 | 17.8 | 
41 | O=C(NCc1ccc(S(=O)(=O)c2cccc(-c3ncccn3)c2)cc1)c1ccc2nccn2c1 | 21.9 | 3.8 |  | 
42 | CCN(C)c1ncc(S(=O)(=O)c2ccc(CNC(=O)c3ccc4nccn4c3)cc2)s1 [N-[(4-{2-[ethyl(methyl)amino]-1,3-thiazole-5-sulfonyl}phenyl)methyl]imidazo[1,2-a]pyridine-6-carboxamide] | 3.3 | 0.4 |  | 
43 | O=C(NCc1ccc(S(=O)(=O)c2cc(F)cc(OCC(F)(F)F)c2)cc1)c1cnc2nccn2c1 | 1.9 | 1.5 |  | 
44 | COc1cccc(S(=O)(=O)c2ccc(CNC(=O)c3ccc4nccn4c3)cc2)c1 [N-({4-[(3-methoxybenzene)sulfonyl]phenyl}methyl)imidazo[1,2-a]pyridine-6-carboxamide] |  | 2.45 | 4.97 | 
45 | O=C(NCc1ccc(S(=O)(=O)c2cccc3ccsc23)cc1)c1cnc2[nH]ncc2c1 [N-{[4-(1-benzothiophene-7-sulfonyl)phenyl]methyl}-1H-pyrazolo[3,4-b]pyridine-5-carboxamide] | 9.9 | 12.8 |  | 
46 | O=C(NCc1ccc(S(=O)(=O)c2ccc(C3CCCCC3)cc2)cc1)c1ccc2nccn2c1 |  | 11.7 | 17.8 | 
47 | O=C(NCc1ccc(S(=O)(=O)N2CCCCC2)cc1)c1cc2cnccc2s1 [N-{[4-(piperidine-1-sulfonyl)phenyl]methyl}thieno[3,2-c]pyridine-2-carboxamide] |  |  | 886 | 10000
